Among the data in patent publication US20260159520A1, “HETEROBIFUNCTIONAL COMPOUNDS AND METHODS OF TREATING DISEASE” (Halda Therapeutics OpCo, Inc., priority 2022, published 2026) are GI50 values, retold here.

Type in all cases: cell-based
Assay [1] has as its system T-Rex 293 cell line SC3 cells lacking increased expression of androgen receptor protein. Description: Cellular growth inhibition, T-Rex 293 SC3 cells without doxycycline. Conditions: not exposed to doxycycline, 72 hours, CellTiter-Glo 2.0. In outline: (§1)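 Doxycycline (10 ng/mL) was either included or omitted to toggle wild-type androgen receptor expression in SC3 cells, a T-Rex 293 clone, grown in stripped-serum, phenol red-free medium. After 72 hours with compound, viable cells were quantified by CellTiter-Glo 2.0.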
(In ATP-based viability assays light output follows the ATP content of the culture.)

Another assay deals with T47D cells. Description: Cellular growth inhibition assay for T47D cells. Particulars: Homo sapiens, 72 hours, CellTiter-Glo 2.0. In outline: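 Luminescence from CellTiter-Glo 2.0 after 72 h of compound exposure gives the viability signal. Cells grew in insulin-supplemented (0.2 units/mL) DMEM with 10% FBS and were treated one day after seeding at 0.5% DMSO. GI50 values come from four-parameter nonlinear regression.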

The test system of assay [2] is T-Rex 293 cell line SC3 cells having increased expression of androgen receptor protein. Briefly: Cellular growth inhibition, T-Rex 293 SC3 cells with doxycycline (increased androgen receptor expression). Particulars: with 10 ng/mL doxycycline (increased androgen receptor), 72 hours, CellTiter-Glo 2.0. In outline:
as §1

Another assay concerns VCaP cells. Description: Cellular growth inhibition assay for VCaP cells. Particulars: Homo sapiens, 72 hours, CellTiter-Glo 2.0.

In general, GI50 refers to the concentration at which growth is held to half of that of the control. High values mean less potent growth inhibition, low ones more potent growth inhibition. Regarding `CCc1cnn2c(NCc3ccc(OCCN(C)c4ncc(C(=O)N[C@H]5C(C)(C)[C@H](Oc6ccc(C#N)c(Cl)c6)C5(C)C)cn4)nc3)cc(N3CCCC[C@H]3CCO)nc12` [Compound I-1], the results for the GI50 (in assay [1]; in the assay on T47D cells; in assay [2]) were 0.1 to 1 µM, 0.5 to 1.5 µM and 0.1 to 1 µM, respectively.

Take `CCc1cnn2c(NCc3ccc(OCCOCCOCCOCCOCCN(C)c4ncc(C(=O)N[C@H]5C(C)(C)[C@H](Oc6ccc(C#N)c(Cl)c6)C5(C)C)cn4)nc3)cc(N3CCCC[C@H]3CCO)nc12` [Compound I-3]: the GI50 in assay [1] was 0.1 to 1 µM; in assay [2], under 0.1 µM; in the assay on VCaP cells it was under 0.1 µM.

`CCc1cnn2c(NCc3ccc(=O)n(CCOCCOCCOCCOCCOCCOCCN(C)c4ncc(C(=O)N[C@H]5C(C)(C)[C@H](Oc6ccc(C#N)c(Cl)c6)C5(C)C)cn4)c3)cc(N3CCCC[C@H]3CCO)nc12` [Compound I-4, N-((1r,3r)-3-(3-chloro-4-cyanophenoxy)-2,2,4,4-tetramethylcyclobutyl)-2-((20-(5-(((3-ethyl-5-((S)-2-(2-hydroxyethyl)piperidin-1-yl)pyrazolo[1,5-a]pyrimidin-7-yl)amino)methyl)-2-oxopyridin-1(2H)-yl)-3,6,9,12,15,18-hexaoxaicosyl)(methyl)amino)pyrimidine-5-carboxamide]: the GI50 in assay [1] and in assay [2] was 0.1 to 1 µM in each case.

As for `CCc1cnn2c(NCc3ccc(OCCOCCOCCOCCOCCOCCOCCN(C)c4ncc(C(=O)N[C@H]5C(C)(C)[C@H](Oc6ccc(C#N)c(Cl)c6)C5(C)C)cn4)nc3)cc(N3CCCC[C@H]3CCO)nc12` [Compound I-5], the GI50 was 1 to 3.5 µM in assay [1] and 0.1 to 1 µM in assay [2].

In the case of `CCc1cnn2c(NCc3ccc(OCCOC4CCN(c5ncc(C(=O)N[C@H]6C(C)(C)[C@H](Oc7ccc(C#N)c(Cl)c7)C6(C)C)cn5)CC4)nc3)cc(N3CCCC[C@H]3CCO)nc12` [Compound I-7, N-((1r,3r)-3-(3-chloro-4-cyanophenoxy)-2,2,4,4-tetramethylcyclobutyl)-2-(4-(2-((5-(((3-ethyl-5-((S)-2-(2-hydroxyethyl)piperidin-1-yl)pyrazolo[1,5-a]pyrimidin-7-yl)amino)methyl)pyridin-2-yl)oxy)ethoxy)piperidin-1-yl)pyrimidine-5-carboxamide], the GI50 in assay [1] was over 3.5 µM; in the assay with T47D cells, over 3 µM; in assay [2], over 3.5 µM; in the assay on VCaP cells, 1 to 3.5 µM.

Regarding `CCc1cnn2c(NCc3ccc(OCCOCCOCCOC4CCN(c5ncc(C(=O)N[C@H]6C(C)(C)[C@H](Oc7ccc(C#N)c(Cl)c7)C6(C)C)cn5)CC4)nc3)cc(N3CCCC[C@H]3CCO)nc12` [Compound I-8], the GI50 in assay [1] is 0.1 to 1 µM; in the assay with T47D cells, under 0.5 µM; in assay [2], under 0.1 µM; in the assay on VCaP cells, under 0.1 µM.

As for `CCc1cnn2c(NCc3ccc(OCCOCCOCCOCCOCCOC4CCN(c5ncc(C(=O)N[C@H]6C(C)(C)[C@H](Oc7ccc(C#N)c(Cl)c7)C6(C)C)cn5)CC4)nc3)cc(N3CCCC[C@H]3CCO)nc12` [Compound I-9], the GI50 in assay [1] is 0.1 to 1 µM; in assay [2] it was under 0.1 µM; in the assay on VCaP cells, under 0.1 µM.

As to `CC1(C)[C@H](NC(=O)c2cnc(N3CCC(OCCNS(=O)(=O)c4ccc(Nc5ncc(Br)c(Nc6cccc(F)c6C(N)=O)n5)cc4)CC3)nc2)C(C)(C)[C@H]1Oc1ccc(C#N)c(Cl)c1` [Compound I-13, 2-(4-(2-((4-((5-bromo-4-((2-carbamoyl-3-fluorophenyl)amino)pyrimidin-2-yl)amino)phenyl)sulfonamido)ethoxy)piperidin-1-yl)-N-((1 r,3r)-3-(3-chloro-4-cyanophenoxy)-2,2,4,4-tetramethylcyclobutyl)pyrimidine-5-carboxamide], the values for the GI50 (in assay [1]; with T47D cells; in assay [2]) were over 3.5 µM, under 0.5 µM and over 3.5 µM, respectively.

Consider `CCc1cnn2c(NCc3ccc(OCCCCOCCOC4CCN(c5ncc(C(=O)N[C@H]6C(C)(C)[C@H](Oc7ccc(C#N)c(Cl)c7)C6(C)C)cn5)CC4)nc3)cc(N3CCCC[C@H]3CCO)nc12` [Compound I-34], for which the GI50 in assay [1] was over 3.5 µM; in assay [2], under 0.1 µM; in the assay on VCaP cells, under 0.1 µM.

On to `CCc1cnn2c(NCc3ccc(OCCN4CCN(CC5CCN(c6ncc(C(=O)N[C@H]7C(C)(C)[C@H](Oc8ccc(C#N)c(Cl)c8)C7(C)C)cn6)CC5)CC4)nc3)cc(N3CCCC[C@H]3CCO)nc12` [Compound I-41], for which the GI50 in assay [1] was 0.1 to 1 µM; in the assay with T47D cells, under 0.5 µM; in assay [2], under 0.1 µM; in the assay on VCaP cells, under 0.1 µM.

For the compound `CCc1cnn2c(NCc3ccc(COCCN4CCN(CC5CCN(c6ncc(C(=O)N[C@H]7C(C)(C)[C@H](Oc8ccc(C#N)c(Cl)c8)C7(C)C)cn6)CC5)CC4)nc3)cc(N3CCCC[C@H]3CCO)nc12` [Compound I-42], the GI50 in assay [1] was 0.1 to 1 µM; with T47D cells it was under 0.5 µM; in assay [2], under 0.1 µM; in the assay with VCaP cells, under 0.1 µM.

As to `CCc1cnn2c(NCc3ccc(OCCCCN4CCN(CC5CCN(c6ncc(C(=O)N[C@H]7C(C)(C)[C@H](Oc8ccc(C#N)c(Cl)c8)C7(C)C)cn6)CC5)CC4)nc3)cc(N3CCCC[C@H]3CCO)nc12` [Compound I-43], the GI50 in assay [1] is 0.1 to 1 µM; with T47D cells it was under 0.5 µM; in assay [2], under 0.1 µM; in the assay on VCaP cells it was under 0.1 µM.

With `CCc1cnn2c(NCc3ccc(OCCOCCOCCOC4CCN(c5ccc(C(=O)N[C@H]6C(C)(C)[C@H](Oc7ccc(C#N)c(Cl)c7)C6(C)C)nn5)CC4)nc3)cc(N3CCCC[C@H]3CCO)nc12` [Compound I-44, N-((1r,3r)-3-(3-chloro-4-cyanophenoxy)-2,2,4,4-tetramethylcyclobutyl)-6-(4-(2-(2-(2-((5-(((3-ethyl-5-((S)-2-(2-hydroxyethyl)piperidin-1-yl)pyrazolo[1,5-a]pyrimidin-7-yl)amino)methyl)pyridin-2-yl)oxy)ethoxy)ethoxy)ethoxy)piperidin-1-yl)pyridazine-3-carboxamide], the results for the GI50 (in assay [1]; with T47D cells; in assay [2]) were 0.1 to 1 µM, under 0.5 µM and 0.1 to 1 µM, respectively.

For `CCc1cnn2c(NCc3ccc(OCCOCC4CCN(CC5CCN(c6ncc(C(=O)N[C@H]7C(C)(C)[C@H](Oc8ccc(C#N)c(Cl)c8)C7(C)C)cn6)CC5)CC4)nc3)cc(N3CCCC[C@H]3CCO)nc12` [Compound I-45], the GI50 in assay [1] was 0.1 to 1 µM; in assay [2] it was under 0.1 µM; with VCaP cells it was under 0.1 µM.

Turning to `CCc1cnn2c(NCc3ccc(OC4CCN(CC5CCN(c6ncc(C(=O)N[C@H]7C(C)(C)[C@H](Oc8ccc(C#N)c(Cl)c8)C7(C)C)cn6)CC5)CC4)nc3)cc(N3CCCC[C@H]3CCO)nc12` [Compound I-46], the GI50 was 0.1 to 1 µM in assay [1], under 0.5 µM in the assay with T47D cells, under 0.1 µM in assay [2] and 0.1 to 1 µM with VCaP cells.

Regarding `CCc1cnn2c(NCc3ccc(OCCN4CCN(CC5CCN(c6ncc(C(=O)N[C@H]7C(C)(C)[C@H](Oc8ccc(C#N)c(Cl)c8)C7(C)C)cn6)CC5)CC4)nc3)cc(-c3ccccc3)nc12` [Compound I-47, N-((1r,3r)-3-(3-chloro-4-cyanophenoxy)-2,2,4,4-tetramethylcyclobutyl)-2-(4-((4-(2-((5-(((3-ethyl-5-phenylpyrazolo[1,5-a]pyrimidin-7-yl)amino)methyl)pyridin-2-yl)oxy)ethyl)piperazin-1-yl)methyl)piperidin-1-yl)pyrimidine-5-carboxamide], the GI50 in assay [1] was over 3.5 µM; with T47D cells, over 3 µM; in assay [2], 0.1 to 1 µM; in the assay on VCaP cells, over 3.5 µM.

For the compound `CCc1cnn2c(NCc3ccc(OCC4CCN(CC5CCN(c6ncc(C(=O)N[C@H]7C(C)(C)[C@H](Oc8ccc(C#N)c(Cl)c8)C7(C)C)cn6)CC5)CC4)nc3)cc(N3CCCC[C@H]3CCO)nc12` [Compound I-51], the GI50 in assay [1] is 0.1 to 1 µM; in the assay on T47D cells, under 0.5 µM; in assay [2], under 0.1 µM; in the assay with VCaP cells, under 0.1 µM.

Take `CCc1cnn2c(NCc3ccc(OCCCN4CCN(CC5CCN(c6ccc(C(=O)N[C@H]7C(C)(C)[C@H](Oc8ccc(C#N)c(Cl)c8)C7(C)C)cn6)CC5)CC4)nc3)cc(N3CCCC[C@@H]3CCO)nc12` [Compound I-55, N-((1r,3r)-3-(3-chloro-4-cyanophenoxy)-2,2,4,4-tetramethylcyclobutyl)-6-(4-((4-(3-((5-(((3-ethyl-5-((R)-2-(2-hydroxyethyl)piperidin-1-yl)pyrazolo[1,5-a]pyrimidin-7-yl)amino)methyl)pyridin-2-yl)oxy)propyl)piperazin-1-yl)methyl)piperidin-1-yl)nicotinamide]: the GI50 was 0.1 to 1 µM in assay [1], under 0.5 µM in the assay with T47D cells, under 0.1 µM in assay [2] and under 0.1 µM with VCaP cells.

Consider `CCc1cnn2c(NCc3ccc(OCCCN4CCN(C5CN(c6ncc(C(=O)N[C@H]7C(C)(C)[C@H](Oc8ccc(C#N)c(Cl)c8)C7(C)C)cn6)C5)CC4)nc3)cc(N3CCCC[C@H]3CCO)nc12` [Compound I-60], for which the GI50 is under 0.1 µM in assay [1], under 0.5 µM in the assay on T47D cells, under 0.1 µM in assay [2] and under 0.1 µM with VCaP cells.

Take `CCc1cnn2c(NCc3ccc(OCCCN4CCC(C5CN(c6ncc(C(=O)N[C@H]7C(C)(C)[C@H](Oc8ccc(C#N)c(Cl)c8)C7(C)C)cn6)C5)CC4)nc3)cc(N3CCCC[C@H]3CCO)nc12` [Compound I-61]: the GI50 was 0.1 to 1 µM in assay [1], under 0.5 µM in the assay with T47D cells, under 0.1 µM in assay [2] and under 0.1 µM in the assay with VCaP cells.

Regarding `CCc1cnn2c(NCc3ccc(N4CCC(CN5CCC6CN(c7ncc(C(=O)N[C@H]8C(C)(C)[C@H](Oc9ccc(C#N)c(Cl)c9)C8(C)C)cn7)CCC6C5)CC4)nc3)cc(N3CCCC[C@H]3CCO)nc12` (stereo partly shown) [Compound I-71], the GI50 in assay [1] was over 3.5 µM; in the assay with T47D cells, 1.5 to 3 µM; in assay [2], under 0.1 µM; in the assay on VCaP cells, 1 to 3.5 µM.
